Data: US10744213B2, “Fluorescent compounds for imaging of blood vessels and blood flow, and an in vivo screen for pro- and anti-angiogenic agents” (COLOSSUS BIOPHARMA CONSULTANTS COMPANY, LIMITED, priority 2017, dated 2020)

How the values were obtained:
[1] = Acute toxicity on zebrafish over a five-day regimen; set-up: species or system zebrafish (Danio rerio); conditions: in vivo, other: added to the fish culture (immersion), calculated using the Benchmark Dose Software (BMDS)
zebrafish blood vessels = test: Staining of zebrafish blood vessels; set-up: species or system zebrafish (Danio rerio); conditions: in vivo
From the text: (§1) Another embodiment of the invention comprises contacting live zebrafish, wild type or not, at various development stages, with the fluorescent compounds. To achieve the contact, the fluorescent compounds can in general be formulated as a solution, in DMSO for instance, and added to the fish culture. […] The fluorescent compounds enter the zebrafish vascular system as a result of such treatment, causing the blood vessels to fluoresce upon excitation and the fluorescence image of the blood vessels and the motion of blood flow can be observed with a microscope. The images can also be recorded with an image capturing device such as a camera. […] Further advantage of the current invention, which is in significant contrast to the transgenic zebrafish models, resides in the fact that the fluorescent compounds are exogenously administered and can be allowed to clear out of the test animals when so desired (see Figure I), such as when further procedures are required with the test animals and the fluorescence may interfere. […]

[2] = system: goldfish (Carassius auratus) blood serum; test: Native PAGE of blood serum stained with the fluorescent compound (UV, fluorescence); type: binding; conditions: 25 μM stain
cow blood serum = test: as above; type: binding; conditions: 25 μM stain
zebrafish = type: in vivo, zebrafish (Danio rerio); conditions: after staining at 10 μM for 1 hour, continuous culture in RO water
From the text: as §1

In the case of `CCOC(=O)c1ccc(C2CC(c3cc4cc(OC)ccc4oc3=O)=NN2c2ccc(C(=O)OCC)cc2)cc1` (centres unmarked) [Diethyl 4,4′-(3-(6-methoxy-2-oxo-2H-chromen-3-yl)-4,5-dihydro-1H-pyrazole-1,5-diyl)dibenzoate], the LC50 at 5 days [1] is reported as 272 µM and the “Regular working concentration for staining zebrafish blood vessels” value (zebrafish blood vessels) is reported as 10 to 25 µM.

With `CCOC(=O)c1cn(-c2ccccc2)nc1-c1ccccc1` [Ethyl 1,3-diphenyl-1H-pyrazole-4-carboxylate] the “Staining of serum bands on Native PAGE” value [2] was “UV as well as matching blue fluorescence” and the “Staining of serum bands on Native PAGE” value (cow blood serum) was “UV as well as matching blue fluorescence”.

For `CCOC(=O)c1ccc(N2N=C(c3cc4cc(OC)ccc4oc3=O)CC2c2ccccc2)cc1` (centres unmarked) [Ethyl 4-(3-(6-methoxy-2-oxo-2H-chromen-3-yl)-5-phenyl-4,5-dihydro-1H-pyrazol-1-yl)benzoate], the “Clearance of the dye (fading of green fluorescence)” value (zebrafish) was “incremental fading of green fluorescence over time within the first 6 hours”.
